Consider 1 molecule from ChEMBL document CHEMBL4041522, “Comprehensive review on various strategies for antimalarial drug discovery” (2017).

Holding throughout (assay type): functional
A short description of assay [1]: In vivo antiparasitic activity against Babesia sp. assessed as parasite clearance time.
In assay [2] the test system is Plasmodium. Nature of the assay: In vivo antiparasitic activity against Plasmodium sp. assessed as parasite clearance time.
A short description of assay [3]: In vivo antiparasitic activity against Toxoplasma sp. assessed as fever clearance time.
The nature of assay [4]: In vivo antiparasitic activity against Pneumocystis sp. assessed as fever clearance time.
The nature of assay [5]: In vivo antiparasitic activity against Babesia sp. assessed as fever clearance time.
In assay [6] the test system is Plasmodium. Description: In vivo antiparasitic activity against Plasmodium sp. assessed as fever clearance time.
The nature of assay [7]: In vivo antiparasitic activity against Toxoplasma sp. assessed as parasite clearance time.
Assay [8] in a line: In vivo antiparasitic activity against Pneumocystis sp. assessed as parasite clearance time.

On to `CCC[C@@H]1C[C@@H](C(=O)N[C@@H]([C@H]2O[C@H](SC)[C@H](O)[C@@H](O)[C@H]2O)[C@H](C)Cl)N(C)C1` [CLINDAMYCIN], for which the Time was 4 to 6 days in assay [1]; 4 to 6 days in the assay on Plasmodium [2]; 3 to 5 days in assay [3]; 3 to 5 days in assay [4]; 3 to 5 days in assay [5]; 3 to 5 days with Plasmodium [6]. In addition, the Time in assay [7] and in assay [8] was 4 to 6 days each time.
